These results are taken from patent US11273151B2, “Methods of treating tumors and cancer, and identifying candidate subjects for such treatment” (ICAHN SCHOOL OF MEDICINE AT MOUNT SINAI, priority 2015, dated 2022).

Assay [1] deals with tumor lines with p53 DNA-contact mutations. The assay can be described thus: Clonogenic cell proliferation assay, p53 DNA-contact mutant tumor lines. The assay is classed as cell-based, human. As to the method:
(§1) For clonogenic assay, cells were plated in triplicate at 1×10^3 cells in 6-well plates. Cells were treated or genetically manipulated as described. After 10 to 14 days, colonies were stained with 1% crystal violet in ethanol and photographed.

Assay [2] concerns HCC-1395. As to the kind of experiment: Clonogenic cell proliferation assay, HCC-1395. The class given is cell-based, human. The note with it: HCC-1395, p53 conformational mutant line. As for the experimental part: as §1
The subject of assay [3] is non-tumorigenic cells. As to the kind of experiment: Proliferation of non-tumorigenic cells. The assay is classed as cell-based. The note with it: FIG. 7. As for the experimental part: as §1
Assay [4] has as its system SK-LMS-1. As to the kind of experiment: Clonogenic cell proliferation assay, SK-LMS-1. The assay is classed as cell-based, human. Conditions: SK-LMS-1, p53 conformational mutation; concentration not given. As to the method: as §1
The test system of assay [5] is tumor lines harboring mutations in Hippo pathway core components. The assay can be described thus: Proliferation of tumor lines with Hippo pathway core component lesions. The class given is cell-based. Conditions: tumor cells with lesions in Hippo pathway core components. As for the experimental part:
as §1

For assay [6], the system named is HCC-193. As to the kind of experiment: Clonogenic cell proliferation assay, HCC-193. The class given is cell-based, human. Conditions: HCC-193, p53-DNA contact tumor line. As for the experimental part:
as §1

Assay [7] relates to tumor lines expressing p53 conformational mutations. The assay can be described thus: Clonogenic cell proliferation assay, p53 conformational mutant tumor lines. The note with it: for inhibition of proliferation: single agent, concentration not given. The class given is cell-based, human. As for the experimental part: as §1
Assay [8] concerns MDA-MB-468. The assay can be described thus: Clonogenic cell proliferation assay, MDA-MB-468. The class given is cell-based, human. Conditions: MDA-MB-468, p53-DNA contact tumor line. As for the experimental part: as §1
The target of assay [9] is ROCK1 (Homo sapiens, UniProt Q13464). The note with it: read-out: reported ICD50 for inhibition of ROCK1; cited from earlier work.
In assay [10] the test system is TEAD/YAP dependent transcription. As to the kind of experiment: TEAD4 luciferase reporter assay. The class given is cell-based, human. As for the experimental part: Cells were plated at 2×10^4 cells/well in 24 well plates, unless otherwise stated, 48 hours before collection and treated or genetically manipulated as described. Firefly and renilla luciferase activities were assayed with the dual luciferase assay system (Promega, Madison Wis., USA), as directed, and firefly luciferase activity was normalized to renilla luciferase activity. Firefly and renilla luminescence were measured with the TD-20e Luminometer (Turner).
For orientation: A reporter such as luciferase makes a cellular process visible.

For assay [11], the target named is ROCK2 (Homo sapiens, UniProt O75116). The note with it: read-out: reported ICD50 for inhibition of ROCK2; cited from earlier work.
Assay [12] deals with SK-BR-3. As to the kind of experiment: Clonogenic cell proliferation assay, SK-BR-3. The note with it: 10 μM; SK-BR-3, p53 conformational mutation. The assay is classed as cell-based, human. As for the experimental part: as §1
Assay [13] deals with MDA-MB-231. As to the kind of experiment: Clonogenic cell proliferation assay, MDA-MB-231. The class given is cell-based, human. Conditions: 10 μM; MDA-MB-231, p53 DNA-contact mutation. As for the experimental part: as §1
Assay [14] relates to MCF10A cells. The assay can be described thus: Anchorage-independent growth assay in soft agar. The class given is cell-based. Conditions: FIG. 4C. As to the method: Growth in soft agar was determined by seeding 2.5×10^3 MCF10A cells in 1 ml of growth media containing 0.3% agar (BD 214050) on top of 1 ml of 0.48% agar in 35-mm dishes. Cells were fed every 4 days for 3 weeks with 0.2 mL of growth medium. Colonies were stained with 1% crystal violet in ethanol and photographed. Colony density was measured using Image J. Assays were conducted in triplicate.

Assay [15] relates to TEAD endogenous target gene expression. The assay can be described thus: Quantitative real-time PCR of TEAD endogenous target genes. The assay is classed as cell-based, human. Conditions: p53 DNA-contact mutant tumor lines. As to the method:
Total RNA was extracted from cells using QIAshredder (Qiagen, Valencia, Calif., USA) and RNeasy Mini kit (Qiagen) following the manufacturer's instructions. First-strand cDNA synthesis was performed using Superscript II reverse transcriptase (Invitrogen, Carlsbad, Calif., USA) according to the manufacturer's instructions. Quantitative PCR was carried out using the ViiA™ 7 Real-Time PCR System (Life Technologies) using the FastStart SYBR Green Master mix (Roche, 04673492001). Primers were as follows: PCR was performed in 384 well plates using 10 μl volumes under the following conditions: 95° C. for 15 min, followed by 40 cycles of 94° C. for 15 sec, 61° C. for 30 sec, and 72° C. for 30 sec. Specificity was verified by a dissociation curve. Results were analyzed with ViiA7 RUO software (Life Technologies).

Setting [16] is: single agent, concentration not given.

“Also recorded” adds a separate entry of the source.

Chain of ROCK2 (O75116 whole entry): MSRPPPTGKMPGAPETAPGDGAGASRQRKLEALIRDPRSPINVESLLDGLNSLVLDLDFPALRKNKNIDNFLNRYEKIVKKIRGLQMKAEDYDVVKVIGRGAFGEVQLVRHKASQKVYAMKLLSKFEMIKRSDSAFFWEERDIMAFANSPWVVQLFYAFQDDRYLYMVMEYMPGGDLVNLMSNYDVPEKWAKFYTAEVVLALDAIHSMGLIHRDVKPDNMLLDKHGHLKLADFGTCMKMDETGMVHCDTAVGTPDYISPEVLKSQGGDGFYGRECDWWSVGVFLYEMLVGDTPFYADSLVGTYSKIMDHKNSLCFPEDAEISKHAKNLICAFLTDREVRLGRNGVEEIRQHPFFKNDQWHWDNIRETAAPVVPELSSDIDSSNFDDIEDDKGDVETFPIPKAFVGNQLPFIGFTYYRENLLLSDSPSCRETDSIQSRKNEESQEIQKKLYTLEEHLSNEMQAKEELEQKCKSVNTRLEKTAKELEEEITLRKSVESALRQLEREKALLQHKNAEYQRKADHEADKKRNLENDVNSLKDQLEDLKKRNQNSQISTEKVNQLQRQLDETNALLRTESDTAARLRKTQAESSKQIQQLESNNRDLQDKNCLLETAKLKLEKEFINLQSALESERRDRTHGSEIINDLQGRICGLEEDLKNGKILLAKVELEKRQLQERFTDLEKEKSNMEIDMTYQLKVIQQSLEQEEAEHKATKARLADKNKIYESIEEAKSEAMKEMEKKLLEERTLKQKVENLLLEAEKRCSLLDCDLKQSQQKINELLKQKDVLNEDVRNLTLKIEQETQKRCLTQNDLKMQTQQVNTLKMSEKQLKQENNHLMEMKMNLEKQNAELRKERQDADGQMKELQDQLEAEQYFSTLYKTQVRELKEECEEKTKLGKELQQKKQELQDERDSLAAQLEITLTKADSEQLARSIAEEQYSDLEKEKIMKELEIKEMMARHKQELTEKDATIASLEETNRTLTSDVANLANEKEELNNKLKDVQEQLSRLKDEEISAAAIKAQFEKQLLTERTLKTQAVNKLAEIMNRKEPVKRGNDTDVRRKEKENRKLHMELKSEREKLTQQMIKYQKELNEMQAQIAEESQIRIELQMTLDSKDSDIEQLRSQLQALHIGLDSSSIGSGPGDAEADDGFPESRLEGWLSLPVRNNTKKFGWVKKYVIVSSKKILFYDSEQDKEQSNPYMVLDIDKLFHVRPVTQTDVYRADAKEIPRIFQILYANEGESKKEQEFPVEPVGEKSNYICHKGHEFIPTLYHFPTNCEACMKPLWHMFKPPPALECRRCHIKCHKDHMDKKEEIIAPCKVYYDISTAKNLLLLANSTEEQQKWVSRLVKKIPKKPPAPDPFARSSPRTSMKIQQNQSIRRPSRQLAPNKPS
Chain of ROCK1 (Q13464 whole entry): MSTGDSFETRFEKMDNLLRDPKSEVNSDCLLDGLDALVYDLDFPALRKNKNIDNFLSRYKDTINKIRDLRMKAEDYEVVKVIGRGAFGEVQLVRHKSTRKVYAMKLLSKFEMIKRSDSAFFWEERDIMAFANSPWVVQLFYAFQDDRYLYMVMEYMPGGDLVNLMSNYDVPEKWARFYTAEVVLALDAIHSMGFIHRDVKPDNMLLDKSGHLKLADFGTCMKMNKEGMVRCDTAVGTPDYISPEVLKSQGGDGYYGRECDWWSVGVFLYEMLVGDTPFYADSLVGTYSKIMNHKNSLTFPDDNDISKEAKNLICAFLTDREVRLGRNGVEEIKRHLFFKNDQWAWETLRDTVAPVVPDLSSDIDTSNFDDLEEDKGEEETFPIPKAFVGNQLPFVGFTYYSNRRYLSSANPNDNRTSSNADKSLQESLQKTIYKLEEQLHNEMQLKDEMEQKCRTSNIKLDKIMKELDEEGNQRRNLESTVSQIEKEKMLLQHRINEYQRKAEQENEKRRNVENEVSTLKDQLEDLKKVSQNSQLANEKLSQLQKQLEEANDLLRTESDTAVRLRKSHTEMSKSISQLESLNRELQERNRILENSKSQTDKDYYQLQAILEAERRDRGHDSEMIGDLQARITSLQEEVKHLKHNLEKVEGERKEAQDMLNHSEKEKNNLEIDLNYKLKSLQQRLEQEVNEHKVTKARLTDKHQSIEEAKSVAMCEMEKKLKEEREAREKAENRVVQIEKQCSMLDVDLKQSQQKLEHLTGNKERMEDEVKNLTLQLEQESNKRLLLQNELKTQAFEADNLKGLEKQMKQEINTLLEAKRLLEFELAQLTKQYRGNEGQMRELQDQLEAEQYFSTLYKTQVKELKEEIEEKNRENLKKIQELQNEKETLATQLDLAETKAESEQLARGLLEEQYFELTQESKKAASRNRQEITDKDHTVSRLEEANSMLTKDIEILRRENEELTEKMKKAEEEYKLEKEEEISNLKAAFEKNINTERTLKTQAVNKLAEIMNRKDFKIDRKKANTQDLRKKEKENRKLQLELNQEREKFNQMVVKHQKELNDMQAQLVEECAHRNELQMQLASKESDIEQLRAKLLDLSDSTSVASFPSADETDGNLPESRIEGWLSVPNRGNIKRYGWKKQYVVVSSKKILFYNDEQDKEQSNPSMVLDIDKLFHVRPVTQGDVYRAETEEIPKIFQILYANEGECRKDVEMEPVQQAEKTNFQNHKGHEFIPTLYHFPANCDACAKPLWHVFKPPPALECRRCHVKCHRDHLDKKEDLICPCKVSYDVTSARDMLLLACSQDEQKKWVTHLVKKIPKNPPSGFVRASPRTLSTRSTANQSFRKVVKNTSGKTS

Consider `Oc1nc(-c2ccc(C(F)(F)F)cc2)nc2c1CSCC2` [XAV939], for which the inhibition of proliferation result was “antagonize the proliferation” in assay [1] (setting [16]); “had no effect on the proliferation” in assay [2]; “neither XAV939 nor Y-27632 inhibits proliferation” in [3]; “had no effect on the proliferation” in [4]; “able to inhibit the proliferation” in assay [6]; “neither XAV939 nor Y-27632 inhibits proliferation” in assay [7]. Moreover, the inhibition of proliferation entry in [8] was “able to inhibit the proliferation”. For the same molecule, in [5], the “effect on growth / proliferation” value is recorded as “inhibits proliferation”.

In the case of `Cc1cncc2cccc(S(=O)(=O)N3CCCN(C(=O)CN)C[C@@H]3C)c12` [Glycyl-H-1152], the inhibition of proliferation entry in assay [1] (1 μM) was “strikingly and specifically inhibited proliferation”. Also, the “concentration for specific inhibition of proliferation, lower than Y-27632” value in assay [1] (relative to Y-27632) is listed as 10 fold. Moreover, the values for the IC50 in assay [9] and in assay [11] were 6 nM and 11.8 nM, respectively. In assay [10] (1 μM, MDA-MB-231, FIG. 5A), the “inhibition of TEAD/YAP dependent transcription” value is listed as “marked inhibition”.

On to `O=S(=O)(c1cccc2cnccc12)N1CCCNCC1` [Fasudil], for which the “inhibition of TEAD/YAP dependent transcription (TEAD reporter activity)” value in [10] (10 μM, MDA-MB-231, FIG. 5A) was “little if any detectable inhibition; also recorded: lack of effect”. For the same molecule, the effect on proliferation entry in [12] and in [13] was “no effect” in each case.

In the case of Verteporfin, the values for the inhibition of proliferation result in [1] (setting [16]) and in assay [7] were “inhibit proliferation” and “inhibited the proliferation; also recorded: inhibiting proliferation”, respectively.

For the molecule `C[C@@H](N)[C@H]1CC[C@H](C(=O)Nc2ccncc2)CC1` [Y-27632], the “effect on transforming ability (colony formation in soft agar)” value in assay [14] (MCF10a cells overexpressing YAP) was “specifically and markedly impaired the transforming ability”; in assay [14] (MCF10a cells overexpressing mutant HRAS), “lack of effects”; in assay [14] (MCF10a cells overexpressing p53 R175H (conformational)) it was “lack of effects”; in assay [14] (MCF10a cells overexpressing p53 R273H (DNA contact)) it was “specifically and markedly impaired the transforming ability”. Besides, the “inhibition of colony formation / proliferation” value in assay [1] (10-50 uM, 3 different p53 contact mutant tumor cells, FIG. 5B) was “almost complete inhibition of colony formation; also recorded: specific inhibition of proliferation”. The inhibition of proliferation result in [1] (setting [16]) is on record as “specifically inhibiting the proliferation; also recorded: specifically inhibit the proliferation; also recorded: antagonize the proliferation; also recorded: specifically inhibited proliferation”; in assay [3] it was “neither XAV939 nor Y-27632 inhibits proliferation”; in [7], “neither XAV939 nor Y-27632 inhibits proliferation”. In addition, in assay [15], the “effect on TEAD endogenous target gene expression” value is “antagonized”. Also, the “effect on TEAD reporter” value in assay [10] (p53 DNA-contact mutant tumor lines, FIG. 4A) is recorded as “antagonized”. Further, the “inhibition of colony formation” value in assay [7] (even at 100 μM, FIG. 5B) was “no detectable inhibition of colony formation”. Moreover, the “growth inhibitory effects on any of the other tumor cells analyzed” value in assay [7] (tumor cells without p53 DNA contact mutation, FIG. 4B) was “without any obvious growth inhibitory effects”.
